Test results from US20260109707A1, “HETEROBIFUNCTIONAL COMPOUNDS AND METHODS OF TREATING DISEASE” (Halda Therapeutics OpCo. Inc., priority 2022, published 2026).
Like-named read-outs stand apart in the source and are kept apart here.

Tests used:
VCaP cells = experiment: Cellular growth inhibition assay for VCaP cells (CellTiter-Glo, 72 hours); type: cell-based, human
Method in brief: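 Luminescent viability signal after 72 h of compound exposure gave GI50 values by four-parameter nonlinear regression. Compounds were added in 0.5% DMSO to cells plated 24 h earlier at 5000/well in DMEM containing 10% FBS.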

T47D cells = experiment: Cellular growth inhibition assay for T47D cells (CellTiter-Glo, 72 hours); type: cell-based, human; conditions: Homo sapiens, T47D, 72 h, 72 hours treatment
Experimental: T47D cells were purchased from American Type Cell Culture (ATCC Cat #HTB-133) and then seeded on poly-D-lysine coated, black clear-bottom 384-well plates at 3000/well in 25 μL Dulbecco's Modified Eagle Medium (DMEM) supplemented with 10% w/w Fetal bovine serum (FBS), 0.2 units/mL recombinant human insulin (Gibco Cat #12585014), and 1% w/w Pen-Strep. Pen-Strep is a commercially available mixture of penicillin G and streptomycin, which is used in mammalian cell culture media to prevent bacterial contamination. Dulbecco's Modified Eagle Medium (DMEM) supplemented with 10% w/w fetal bovine serum (FBS), 0.2 units/mL recombinant human insulin, and 1% w/w Pen-Strep is herein referred to as Treatment Medium. Following seeding of cells in the plates, the plates were spun at 300×g for 30 seconds, then equilibrated to room temperature for 30 minutes, and then deposited in a humidified tissue culture incubator maintained at 37° C. with 5% CO2.
At 24 hours after seeding of the cells, dilutions of test compound were prepared in DMSO and dissolved in Treatment Medium, to achieve a final DMSO concentration of 0.5% w/w, thereby providing the Test Compound Solution. A 25 μL aliquot of the Test Compound Solution was added to cells in the well plates. An equal volume of a solution containing DMSO and Treatment Medium was used as a negative control. Following treatment of cells with Test Compound Solution or said equal volume of a solution containing DMSO and Treatment Medium, the plates were spun at 300×g for 30 seconds, and then left in an incubator for 72 hours.
At the end of the treatment duration, cell viability was quantified with CellTiter-Glo 2.0 reagent (Promega Cat #G9243). For this purpose, plates were equilibrated to room temperature for 30 minutes, and then 25 μL of CellTiter-Glo 2.0 reagent was added to cells in the plate wells. Plates were then agitated on a shaker for two minutes at 500 rpm and subsequently incubated at room temperature for 10 minutes. Following incubation, the plates were spun at 3000×g for 30 seconds, then sealed with an optical adhesive cover, and luminescence readings were measured with an EnVision Plate Reader (Perkin Elmer).
Data was normalized using zero luminescence for baseline. A four-parameter non-linear regression curve fit was applied to dose-response data in GraphPad Prism data analysis software to determine the half-maximal growth inhibitory concentration (GI50) for each test compound.

[1] = test system: T-Rex 293 cell line SC3 cells having increased expression of androgen receptor protein due to exposure to doxycycline; experiment: Cellular growth inhibition assay, T-Rex 293 SC3 cells with doxycycline (CellTiter-Glo, 72 hours); type: cell-based; conditions: T-Rex 293 SC3 cells with increased androgen receptor expression due to doxycycline (10 ng/mL)
Method in brief: (§1)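 Growth inhibition is measured in an inducible AR-expressing T-Rex 293 clone, SC3, cultured with or without 10 ng/mL doxycycline in hormone-depleted medium. Test compounds are applied for 72 hours. GI50 values derive from CellTiter-Glo 2.0 signal fitted by four-parameter regression.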

[2] = test system: T-Rex 293 cell line SC3 cells lacking increased expression of androgen receptor protein; experiment: Cellular growth inhibition assay, T-Rex 293 SC3 cells without doxycycline (CellTiter-Glo, 72 hours); type: cell-based; conditions: T-Rex 293 cell line SC3 cells not exposed to doxycycline (lacking increased androgen receptor expression)
Method in brief: as §1

Row | Compound | GI50 (VCaP cells; Homo sapiens, VCaP, 72 h) [nM] | GI50 (T47D cells) [nM] | GI50 ([1]; 72 h) [nM] | GI50 ([2]; 72 h) [nM] | GI50 (VCaP cells) [nM] | GI50 [1] [nM] | GI50 [2] [nM]
1 | Cc1sc2c(c1C)C(c1ccc(C#CC3CC4(C3)CN(c3ccc(C(=O)N[C@H]5CC[C@H](Oc6ccc(C#N)c(Cl)c6)CC5)nn3)C4)nc1)=N[C@@H](Cc1ncco1)c1nnc(C)n1-2 [I-282] | > 3000 | > 3000 | – | – | – | – | –
2 | Cc1sc2c(c1C)C(c1ccc(CN(C)C(=O)CCc3ccc(C(=O)N[C@H]4CC[C@H](Oc5ccc(C#N)c(Cl)c5)CC4)nn3)cc1)=N[C@@H](Cc1ncco1)c1nnc(C)n1-2 [I-273] | < 500 | 500 to 1500 | – | – | – | – | –
3 | Cc1sc2c(c1C)C(c1ccc(C(=O)N3CC[C@@]4(CCCN(c5ccc(C(=O)N[C@H]6CC[C@H](Oc7ccc(C#N)c(Cl)c7)CC6)nn5)C4)C3)cc1)=N[C@@H](Cc1ncco1)c1nnc(C)n1-2 [I-269] | > 3000 | 1500 to 3000 | – | – | – | – | –
4 | Cc1sc2c(c1C)C(c1ccc(CC3CCC4CN(c5ccc(C(=O)N[C@H]6CC[C@H](Oc7ccc(C#N)c(Cl)c7)CC6)nn5)CCN4C3)cc1)=N[C@@H](Cc1ncco1)c1nnc(C)n1-2 (stereo partly shown) [I-283] | < 500 | < 500 | – | – | – | – | –
5 | Cc1sc2c(c1C)C(c1ccc(C[C@@H]3CCC4CN(c5ccc(C(=O)N[C@H]6CC[C@H](Oc7ccc(C#N)c(Cl)c7)CC6)nn5)CCN4C3)cc1)=N[C@@H](Cc1ncco1)c1nnc(C)n1-2 (stereo partly shown) [I-259] | < 500 | < 500 | – | – | – | – | –
6 | Cc1sc2c(c1C)C(c1ccc(OC[C@H]3C[C@]4(CCCN(c5ccc(C(=O)N[C@H]6CC[C@H](Oc7ccc(C#N)c(Cl)c7)CC6)nn5)C4)C3)cc1)=N[C@@H](C)c1nnc(C)n1-2 [I-309] | – | 500 to 1500 | < 500 | > 3000 | – | – | –
7 | Cc1sc2c(c1C)C(c1ccc(OC3CCC4(C3)CN(c3ccc(C(=O)N[C@H]5CC[C@H](Oc6ccc(C#N)c(Cl)c6)CC5)nn3)CCO4)cc1)=N[C@@H](C)c1nnc(C)n1-2 (stereo partly shown) [I-541] | – | – | – | – | > 3000 | < 500 | < 500
8 | CCNC(=O)C[C@@H]1N=C(c2ccc(N3CC(CC4CN(c5ccc(C(=O)N[C@H]6CC[C@H](Oc7ccc(C#N)c(Cl)c7)CC6)nn5)C4)C3)cc2)c2c(sc(C)c2C)-n2c(C)nnc21 [I-66] | < 500 | – | < 500 | 500 to 1500 | – | – | –
9 | Cc1sc2c(c1C)C(c1cccc(N3CCC4(CCN(c5ccc(C(=O)N[C@H]6CC[C@H](Oc7ccc(C#N)c(Cl)c7)CC6)nn5)C4)C3)c1)=N[C@@H](C)c1nnc(C)n1-2 (stereo partly shown) [I-708] | – | – | – | – | < 500 | < 500 | 1500 to 3000
10 | Cc1sc2c(c1C)C(c1ccc(OC3CCC4(CCCN(c5ccc(C(=O)N[C@H]6CC[C@H](Oc7ccc(C#N)c(Cl)c7)CC6)nn5)C4)C3)cc1)=NC1(CC1)c1nnc(C)n1-2 (stereo partly shown) [I-524] | – | – | – | – | > 3000 | < 500 | > 3000
11 | Cc1sc2c(c1C)C(c1ccc(N3CCC4(CCN(c5ccc(C(=O)N[C@H]6CC[C@H](Oc7ccc(C#N)c(Cl)c7)CC6)nn5)CC4)C3)cc1)=N[C@@H](C)c1nnc(C)n1-2 [I-641] | < 500 | – | < 500 | < 500 | – | – | –
12 | Cc1sc2c(c1C)C(c1ccc(N3CCC4CN(c5ccc(C(=O)N[C@H]6CC[C@H](Oc7ccc(C#N)c(Cl)c7)CC6)nn5)CCC4C3)cc1)=NC1(CC1)c1nnc(C)n1-2 (stereo partly shown) [I-565] | – | – | – | – | > 3000 | < 500 | < 500
13 | Cc1sc2c(c1C)C(c1ccc(N3C4CCC3CN(c3ncc(C(=O)N[C@H]5CC[C@H](Oc6ccc(C#N)c(Cl)c6)CC5)cn3)C4)cc1)=NC(Cc1ncco1)c1nnc(C)n1-2 (stereo partly shown) [I-785] | > 3000 | – | – | – | – | < 500 | 500 to 1500
14 | Cc1sc2c(c1C)C(c1ccc(N3CC4(CC(C#Cc5ccc(C(=O)N[C@H]6CC[C@H](Oc7ccc(C#N)c(Cl)c7)CC6)nn5)C4)C3)cc1)=N[C@@H](Cc1ncco1)c1nnc(C)n1-2 [I-545] | < 500 | – | < 500 | < 500 | – | – | –
15 | CC[C@@H]1N=C(c2ccc(N3CCC4(CCCN(c5ccc(C(=O)N[C@H]6CC[C@H](Oc7ccc(C#N)c(Cl)c7)CC6)nn5)C4)CC3)cc2)c2c(sc(C)c2C)-n2c(C)nnc21 [I-510] | > 3000 | – | < 500 | < 500 | – | – | –
16 | Cc1sc2c(c1C)C(c1ccc(N3CC(C4CCN(c5ccc(C(=O)N[C@H]6CC[C@H](Oc7ccc(C#N)c(Cl)c7)CC6)nn5)CC4)C3)nc1)=N[C@@H](C)c1nnc(C)n1-2 [I-463] | 500 to 1500 | – | < 500 | 500 to 1500 | – | – | –
17 | Cc1sc2c(c1C)C(c1ccc(N3CCC4(CCN(c5ccc(C(=O)N[C@H]6CC[C@H](Oc7ccc(C#N)c(Cl)c7)CC6)nn5)C4)C3)cc1F)=N[C@@H](C)c1nnc(C)n1-2 (stereo partly shown) [I-732] | – | – | < 500 | < 500 | < 500 | – | –
18 | Cc1sc2c(c1C)C(c1ccc(C#CC3CC4(CCCN(c5ccc(C(=O)N[C@H]6CC[C@H](Oc7ccc(C#N)c(Cl)c7)CC6)nn5)C4)C3)cn1)=NC(C)c1nnc(C)n1-2 (stereo partly shown) [I-456] | – | – | – | – | 500 to 1500 | < 500 | 500 to 1500
19 | Cc1sc2c(c1C)C(c1ccc(OC3CCC4(C3)CN(c3ccc(C(=O)N[C@H]5CC[C@H](Oc6ccc(C#N)c(Cl)c6)CC5)nn3)CCO4)cc1)=N[C@@H](C)c1nnc(C)n1-2 (stereo partly shown) [I-540] | – | – | – | – | 1500 to 3000 | < 500 | < 500
20 | Cc1sc2c(c1C)C(c1ccc(N3C4CCCC3CC3(CCN(c5ccc(C(=O)N[C@H]6CC[C@H](Oc7ccc(C#N)c(Cl)c7)CC6)nn5)C3)C4)cc1)=N[C@@H](C)c1nnc(C)n1-2 (stereo partly shown) [I-730] | < 500 | – | – | – | – | < 500 | > 3000
21 | Cc1sc2c(c1C)C(c1ccc(CC3CCC4(C3)CN(c3ccc(C(=O)N[C@H]5CC[C@H](Oc6ccc(C#N)c(Cl)c6)CC5)nn3)CCO4)cc1)=N[C@@H](C)c1nnc(C)n1-2 (stereo partly shown) [I-580] | – | – | – | – | < 500 | < 500 | < 500
22 | Cc1sc2c(c1C)C(c1ccc(CC3CC4(CCCN(c5ccc(C(=O)N[C@H]6CC[C@H](Oc7ccc(C#N)c(Cl)c7)CC6)nn5)C4)C3)cc1)=NCc1nnc(C)n1-2 (stereo partly shown) [I-488] | – | – | – | > 3000 | < 500 | < 500 | –
23 | Cc1sc2c(c1C)C(c1ccc(N3CCC(Cc4ccc(C(=O)N[C@H]5CC[C@H](Oc6ccc(C#N)c(Cl)c6)CC5)nn4)CC3)cc1)=N[C@@H](C)c1nnc(C)n1-2 [I-606] | > 3000 | – | < 500 | > 3000 | – | – | –
24 | CCNC(=O)C[C@@H]1N=C(c2ccc(OC3CN(CC4CCN(c5ccc(C(=O)N[C@H]6CC[C@H](Oc7ccc(C#N)c(Cl)c7)CC6)nn5)CC4)C3)cc2)c2c(sc(C)c2C)-n2c(C)nnc21 [I-45] | 500 to 1500 | – | < 500 | 500 to 1500 | – | – | –
25 | Cc1sc2c(c1C)C(c1ccc(N3CC4(CC(Cc5ccc(C(=O)N[C@H]6CC[C@H](Oc7ccc(C#N)c(Cl)c7)CC6)nn5)C4)C3)cc1)=NC(C(F)(F)F)c1nnc(C)n1-2 (stereo partly shown) [I-725] | – | – | – | – | < 500 | < 500 | > 3000
26 | Cc1sc2c(c1C)C(c1ccccc1OC1CCN(c3ccc(C(=O)N[C@H]4CC[C@H](Oc5ccc(C#N)c(Cl)c5)CC4)nn3)CC1)=N[C@@H](C)c1nnc(C)n1-2 [I-649] | < 500 | – | > 3000 | > 3000 | – | – | –
27 | Cc1sc2c(c1C)C(c1ccc(CCCC3CCCN(c4ccc(C(=O)N[C@H]5CC[C@H](Oc6ccc(C#N)c(Cl)c6)CC5)nn4)CC3)nc1)=N[C@@H](C)c1nnc(C)n1-2 (stereo partly shown) [I-671] | < 500 | – | < 500 | < 500 | – | – | –
28 | Cc1sc2c(c1C)C(c1ccc(N3C[C@@H]4CN(c5ccc(C(=O)N[C@H]6CC[C@@H](Oc7ccc(C#N)c(Cl)c7)CC6)nn5)C[C@@H]4C3)cc1)=N[C@@H](Cc1ncco1)c1nnc(C)n1-2 [I-825, 6-[(3aR,6aS)-2-[4-[(9S)-4,5,13-trimethyl-9-(oxazol-2-ylmethyl)-3-thia-1,8,11,12-tetrazatricyclo[8.3.0.02,6]trideca-2(6),4,7,10,12-pentaen-7-yl]phenyl]-1,3,3a,4,6,6a-hexahydropyrrolo[3,4-c]pyrrol-5-yl]-N-[4-(3-chloro-4-cyano-phenoxy)cyclohexyl]pyridazine-3-carboxamide] | < 500 | – | < 500 | < 500 | – | – | –
